Experimental data taken from patent EP0399422A1, “Benzocycloalkane derivatives and production thereof” (Takeda Chemical Industries, Ltd., priority 1989, dated 1990).
Marks after values point to notes of the source that are not given here.

System: cholesterol-loaded rats
Experiment: Plasma cholesterol lowering activity in cholesterol-loaded rats
Assay type: in vivo, Male Sprague-Dawley rats
Conditions: 1% cholesterol diet containing 0.01% test compound for 4 days; dose 8.5 mg/kg/day; control group 266 + 46; p<0.01
Protocol: Male Sprague-Dawley rats of 7 weeks of age were fed with a 1% cholesterol diet (containing 0.5% cholic acid and 5% olive oil) for 3 days, then grouped by plasma cholesterol level and further fed with the same diet containing 0.01% test compound for 4 days. Blood samples were collected at 8:30 a.m. to 10:00 a.m. while the animals were satiated, and plasma cholesterol levels were determined enzymatically. Intakes of the compound were calculated from food intake data.

Row | Compound | Plasma cholesterol
1 | O=C(Nc1ccc(F)cc1F)N(Cc1ccccc1Cl)C1Cc2ccccc2C1 [Example 1, N-(2-chlorobenzyl)-N′-(2,4-difluorophenyl)-N-(2-indanyl)urea] | 128 + 47* mg/dl

System: Acyl-CoA:cholesterol acyl transferase (ACAT)
Experiment: Acyl-CoA:cholesterol acyl transferase (ACAT) inhibiting activity
Assay type: biochemical, male Sprague-Dawley rats
Design: tested at 1 µM
Conditions: inhibition of labeled cholesterol ester formation at 10⁻⁶ M of the test compounds; small intestine mucosa microsome fraction
Protocol: An ACAT enzyme preparation was obtained from the small intestine mucosa microsome fraction from male Sprague-Dawley rats of 6 weeks of age fasted for 20 hours, as described by Heider et al. [Journal of Lipid Research, 24, 1127 (1982)].
The ACAT activity was calculated by determining the yield of a labeled cholesterol ester from [1-¹⁴C]oleoyl-CoA and endogenous cholesterol using the method of Helgerud et al. [Journal of Lipid Research, 22, 271 (1981)].
The inhibition percentages of the labeled cholesterol ester formation at 10⁻⁶ M of the test compounds are shown in Table 1 as ACAT inhibiting activity indices.

Row | Compound | % ACAT inhibition
2 | O=C(Nc1ccc(F)cc1F)N(Cc1ccccc1Cl)C1Cc2ccccc2C1 [Example 1, N-(2-chlorobenzyl)-N′-(2,4-difluorophenyl)-N-(2-indanyl)urea] | 84%
3 | Cc1cc(O)c(C(C)(C)C)cc1CN(C(=O)Nc1ccc(F)cc1F)C1CCCc2ccccc2C1 (stereo not shown) [Example 50, N-(5-tert-Butyl-4-hydroxy-2-methylbenzyl)-N′-(2,4-difluorophenyl)-N-(6,7,8,9-tetrahydro-5H-6-benzocycloheptenyl)urea] | 85%
4 | Cc1ccc(C)c(CN(C(=O)Nc2ccc(F)cc2F)C2CCCc3ccccc3C2)c1 (stereo not shown) [Example 56, N-(2,4-Difluorophenyl)-N′-(6,7,8,9-tetrahydro-5H-6-benzocycloheptenyl)-N′-(2,5-dimethylbenzyl)urea] | 79%
5 | O=C(Nc1ccc(F)cc1F)N(Cc1ccccc1)C1CCc2ccccc21 (stereo not shown) [Example 57, N-Benzyl-N′-(2,4-difluorophenyl)-N-(1-indanyl)urea] | 84%
6 | O=C(Nc1ccc(F)cc1F)N(Cc1ccccc1)C1CCCc2ccccc21 (stereo not shown) [Example 58, N-Benzyl-N′-(2,4-difluorophenyl)-N-(1,2,3,4-tetrahydro-1-naphthyl)urea] | 94%

More lines, now with the values ahead:

Row | % ACAT inhibition | Compound
7 | 80% | O=C(Nc1ccc(F)cc1F)N(Cc1ccccc1)C1CCCCc2ccccc21 (stereo not shown) [Example 59, N-Benzyl-N′-(2,4-difluorophenyl)-N-(6,7,8,9-tetrahydro-5H-5-benzocycloheptenyl)urea]
8 | 83% | COc1cc(CN(C(=O)Nc2ccc(F)cc2F)C2CCc3ccccc32)cc(OC)c1O (stereo not shown) [Example 60, N-(2,4-Difluorophenyl)-N′-(4-hydroxy-3,5-dimethoxybenzyl)-N′-(1-indanyl)urea]
9 | 53% | COc1cc(CN(C(=O)Nc2ccc(F)cc2F)C2CCCc3ccccc32)cc(OC)c1O (stereo not shown) [Example 61, N-(2,4-Difluorophenyl)-N′-(4-hydroxy-3,5-dimethoxybenzyl)-N′-(1,2,3,4-tetrahydro-1-naphthyl)urea]
10 | 69% | COc1cc(CN(C(=O)Nc2ccc(F)cc2F)C2CCCCc3ccccc32)cc(OC)c1O (stereo not shown) [Example 62, N-(2,4-Difluorophenyl)-N′-(6,7,8,9-tetrahydro-5H-5-benzocycloheptenyl)-N′-(4-hydroxy-3,5-dimethoxybenzyl)urea]
